According to patent US20230065953A1, “NOVEL HETEROARYL-TRIAZOLE COMPOUNDS AS PESTICIDES” (Bayer Aktiengesellschaft, priority 2019, published 2023):

What was measured:
Format in all cases: in vivo
[1] = test system: fall armyworm larvae (Spodoptera frugiperda); assay: Spodoptera frugiperda spray test (maize leaf sections); conditions: 168 h
In short: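 Percent kill of Spodoptera frugiperda caterpillars read at day 7. Larvae placed on dried Zea mays leaf pieces previously sprayed with test preparation, made from acetone plus DMF and diluted with emulsifier-containing water (1000 ppm).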

[2] = test system: adult unfed cat fleas (Ctenocephalides felis); assay: Ctenocephalides felis oral test; conditions: 48 h
In short: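 About 20 adult unfed fleas fed through parafilm on cattle blood containing compound (DMSO stock diluted in blood), blood held at 37 °C and fleas at room temperature. Mortality (%) scored after 2 days.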

[3] = test system: adult engorged female ticks (Rhipicephalus microplus); assay: Rhipicephalus (Boophilus) microplus injection test; conditions: 168 h, 4 μg/animal, egg deposition after 7 days, read-out: efficacy (infertile eggs)
In short: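 Five adult engorged female ticks each injected into the abdomen with 1 μL of compound in DMSO, then kept in a climate chamber. Fertile egg deposition assessed after 7 days, with unclear eggs held until hatching around 42 days; efficacy 100% means all eggs infertile, 0% all fertile.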

[4] = test system: larvae of the banded cucumber beetle (Diabrotica balteata); assay: Diabrotica balteata spray test; conditions: 168 h, 100 g/ha (=32 μg/well), wheat seeds, after 7 days, read-out: efficacy (seedling growth)
In short: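 Efficacy in % was read 7 days after infesting with 10-20 larvae per unit. Before infestation, 1-day-germinated wheat seedlings (5 per well) were sprayed with the active ingredient, formulated in acetone and dimethylformamide plus emulsifier and diluted with water containing emulsifier.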

[5] = test system: Rhipicephalus microplus larvae (strain Parkhurst, resistant against synthetic pyrethroids); assay: Rhipicephalus (Boophilus) microplus in-vitro contact test, larval cattle tick; conditions: 5 μg/cm^2 (=500 g/ha), after 48 hours, read-out: efficacy (larvae dead or moribund)
In short: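 Larvae exposed by contact to a dried acetone film on glass; a 900 ppm solution yields 5 μg/cm^2. Scoring after 48 h at 27° C. counts dead plus moribund larvae as efficacy.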

[6] = test system: adult brown dog ticks (Rhipicephalus sanguineus); assay: Rhipicephalus sanguineus in-vitro contact test with adult brown dog ticks; conditions: 5 μg/cm^2 (=500 g/ha), after 48 hours, read-out: efficacy (ticks dead or moribund)
Experimental: Rhipicephalus sanguineus—In-Vitro Contact Tests with Adult Brown Dog Ticks
9 mg compound is solved in 1 mL acetone and diluted with acetone to the desired concentration. 250 μL of the test solution is filled in 25 mL glass test tubes and homogeneously distributed on the inner walls by rotation and tilting on a shaking device (2 h at 30 rpm). With a compound concentration of 900 ppm, an inner surface of 44.7 cm^2 and a homogeneous distribution, a dose of 5 μg/cm^2 is achieved.
After the solvent has evaporated, each test tube is filled with 5-10 adult brown dog ticks (Rhipicephalus sanguineus), closed with a perforated lid and incubated in a lying position at room temperature and relative humidity. After 48 hours efficacy is determined. The ticks are patted on the ground of the tubes and are incubated on a heating plate at 45-50° C. for at most 5 minutes. Immotile or uncoordinated moving ticks, which are not able to escape the heat by climbing upwards, are marked as dead or moribund.
An efficacy of 100% means all ticks are dead or moribund; 0% means no ticks are dead or moribund.

[7] = test system: adult cat fleas (Ctenocephalides felis); assay: Ctenocephalides felis in-vitro contact test, adult cat flea; conditions: 5 μg/cm^2 (=500 g/ha), after 48 hours
In short: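 After 48 h of room-temperature exposure in tubes whose walls carried dried compound residue (5 μg/cm^2, from 900 ppm acetone solution), adult cat fleas (5-10 per tube) were heat-challenged at 45-50° C up to 5 min. Fleas unable to climb away were counted dead or moribund, expressed as % efficacy.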

[8] = test system: brown planthopper (Nilaparvata lugens); assay: Nilaparvata lugens spray test; conditions: 96 h, rice plants, after 4 days
Experimental: Nilaparvata lugens—Spray Test • Solvent: 78.0 parts by weight of acetone • 1.5 parts by weight of dimethylformamide • Emulsifier: alkylarylpolyglycol ether
To produce a suitable preparation of active compound, 1 part by weight of active compound is mixed with the stated amount of solvents and is diluted with water, containing an emulsifier concentration of 1000 ppm, to the desired concentration. Further test concentrations are prepared by dilution with emulsifier containing water.
Rice plants (Oryza sativa) are sprayed with a preparation of the active ingredient of the desired concentration and the plants are infested with the brown planthopper (Nilaparvata lugens).
After 4 days mortality in % is determined. 100% means all planthoppers have been killed and 0% means none of the planthoppers have been killed.

[9] = test system: green peach aphid (Myzus persicae); assay: Myzus persicae oral test; conditions: 120 h
In short: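 Compound was dissolved in acetone, diluted with water and mixed into IPL41 insect medium with sugar under a parafilm seal. A mixed aphid population fed through the parafilm, and mortality (%) was scored after 5 days.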

[10] = test system: adult mosquitoes Aedes aegypti strain MONHEIM; assay: Aedes aegypti test (AEDSAE surface treatment & contact assay); conditions: 24 hours after contact, read-out: efficacy (mortality); for mortality at 20 mg/m2: surface concentration 20 mg/m^2, 30 min exposure
Experimental: Aedes aegypti test (AEDSAE surface treatment & contact assay) • Solvent: Aceton+2000 ppm rapeseed oil methyl ester (RME)
(§1) In order to produce a sufficient, active ingredient containing solution it is necessary to solve the test compound in the solvent-mix (acetone at 2 mg/ml/RME 2000 ppm). This solution is pipetted onto a glazed tile and after evaporation of the acetone, adult mosquitoes of the species Aedes aegypti strain MONHEIM are placed onto the dried surface. The exposure time is 30 minutes.
(§2) Mortality in percent (%) is determined 24 hours after contact of the insects to the treated surface. 100% mortality means that all tested insects are dead, whereas 0% means that no insect died.

[11] = test system: adult flies Musca domestica strain WHO-N; assay: Musca domestica test (MUSCDO surface treatment & contact assay); conditions: 24 hours after contact, read-out: efficacy (mortality); for mortality at 4 mg/m2: surface concentration 4 mg/m^2, 30 min exposure; for mortality at 20 mg/m2: surface concentration 20 mg/m^2, 30 min exposure
Experimental: Musca domestica Test (MUSCDO Surface Treatment & Contact Assay) • Solvent: Aceton+2000 ppm rapeseed oil methyl ester (RME)
as §1, with “flies” for “mosquitoes”, “Musca domestica” for “Aedes aegypti”, “WHO-N” for “MONHEIM”
as §2

[12] = test system: green peach aphid (Myzus persicae); assay: Myzus persicae spray test; conditions: foliar, 120 h, Chinese cabbage leaf disks, after 5 days
In short: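 Percent mortality read 5 days after spraying, where 100% is total kill and 0% none. The spray contained compound in acetone plus dimethylformamide, diluted with 1000 ppm emulsifier water. It was applied to Brassica pekinensis leaf disks carrying mixed-instar green peach aphids.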

[13] = test system: larvae of the southern green stink bug (Nezara viridula); assay: Nezara viridula spray test; conditions: in Hordeum vulgare, 96 h
In short: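 Mortality (%) of stink bug larvae on treated barley (Hordeum vulgare) was scored 4 days after infestation. Test solutions came from an acetone/DMF concentrate diluted with water containing 1000 ppm emulsifier and were sprayed onto plants before larvae were added.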

Cc1nc([C@H](C)NC(=O)c2cc(C(F)(F)F)cc(C(F)(F)F)c2)n(-c2ncc(C(=O)N(C)C(C)C)s2)n1 [I-10]
mortality at 100 g/ha [1]: 100% | mortality at 100 ppm [2]: 100% | pest or weed control at 0.004 mg [3]: 100% | pest or weed control at 32 µg/disc, 100 g/ha [4]: 100% | pest or weed control at 5 µg/cm2 [5]: 100% | pest or weed control at 5 µg/cm2, 500 g/ha [6]: 100% | efficacy (fleas dead or moribund) [7]: 90% | mortality at 100 g/ha ([8]; 100 g/ha): 90%

Cc1nc([C@H](C)NC(=O)c2cc(Cl)cc(C(F)F)c2)n(-c2ncc(C#N)s2)n1 [I-18]
mortality at 100 g/ha [1]: 100% | mortality at 100 ppm [2]: 100% | mortality at 4 ppm [9]: 100% | mortality at 4 mg/m2 ([10]; surface concentration 4 mg/m^2, 30 min exposure): 80 to 100% | mortality at 20 mg/m2 [10]: 80 to 100% | mortality at 4 mg/m2 [11]: 90 to 100% | mortality at 20 mg/m2 [11]: 80 to 100% | pest or weed control at 0.004 mg [3]: 100% | pest or weed control at 32 µg/disc, 100 g/ha [4]: 100% | mortality at 100 g/ha [12]: 100% | pest or weed control at 5 µg/cm2 [5]: 100% | pest or weed control at 5 µg/cm2, 500 g/ha [6]: 100%

Cc1nc([C@H](C)NC(=O)c2cc(OC(F)(F)F)cc(C3CC3)c2)n(-c2ncc(C(=O)N(C)CC#N)s2)n1 [I-24, N-(cyanomethyl)-2-(5-{(1S)-1-[3-cyclopropyl-5-(trifluoromethoxy)benzamido]ethyl}-3-methyl-1H-1,2,4-triazol-1-yl)-N-methyl-1,3-thiazole-5-carboxamide]
mortality at 100 g/ha [1]: 100% | mortality at 100 ppm [2]: 100% | mortality at 4 ppm [9]: 100% | pest or weed control at 0.004 mg [3]: 100% | pest or weed control at 32 µg/disc, 100 g/ha [4]: 100% | mortality at 100 g/ha [12]: 100% | pest or weed control at 5 µg/cm2 [5]: 100% | pest or weed control at 5 µg/cm2, 500 g/ha [6]: 80% | efficacy (fleas dead or moribund) [7]: 100%

C[C@H](NC(=O)c1cc(C(F)(F)F)cc(S(C)(=O)=O)c1)c1ncnn1-c1ncc(C(=O)N(C)C)s1 [I-65]
mortality at 100 g/ha [1]: 100% | pest or weed control at 32 µg/disc, 100 g/ha [4]: 100% | mortality at 100 g/ha [12]: 100% | mortality at 100 g/ha [13]: 100% | mortality at 500 g/ha [13]: 100% | efficacy (fleas dead or moribund) [7]: 100% | mortality at 500 g/ha [8]: 90%

C[C@H](NC(=O)c1cc(OC(F)(F)F)cc(C2CC2)c1)c1ncnn1-c1ncc(C(=O)N(C)C)s1 [I-89]
mortality at 100 g/ha [1]: 100% | mortality at 20 mg/m2 [10]: 80 to 100% | mortality at 20 mg/m2 [11]: 80 to 100% | pest or weed control at 32 µg/disc, 100 g/ha [4]: 100% | mortality at 100 g/ha [12]: 100% | pest or weed control at 5 µg/cm2 [5]: 100% | pest or weed control at 5 µg/cm2, 500 g/ha [6]: 80% | mortality at 500 g/ha [13]: 100% | efficacy (fleas dead or moribund) [7]: 100% | mortality at 500 g/ha [8]: 100%

Cc1nc([C@H](C)NC(=O)c2cc(OC(F)(F)F)cc(C3CC3)c2)n(-c2ncc(C#N)s2)n1 [I-91]
mortality at 100 g/ha [1]: 100% | mortality at 20 mg/m2 [10]: 80 to 100% | mortality at 4 mg/m2 [11]: 90 to 100% | mortality at 20 mg/m2 [11]: 80 to 100% | pest or weed control at 32 µg/disc, 100 g/ha [4]: 100% | mortality at 100 g/ha [12]: 90% | pest or weed control at 5 µg/cm2 [5]: 100% | pest or weed control at 5 µg/cm2, 500 g/ha [6]: 100% | mortality at 500 g/ha [13]: 100% | mortality at 500 g/ha [8]: 100%

CNC(=O)c1cnc(-n2nc(C)nc2[C@H](C)NC(=O)c2cc(C(F)(F)F)cc(C(F)(F)F)c2)s1 [I-102]
mortality at 100 g/ha [1]: 100% | pest or weed control at 32 µg/disc, 100 g/ha [4]: 100% | mortality at 100 g/ha [12]: 90% | pest or weed control at 5 µg/cm2 [5]: 100% | mortality at 500 g/ha [13]: 100% | efficacy (fleas dead or moribund) [7]: 100% | mortality at 500 g/ha [8]: 100%

CNC(=O)c1cnc(-n2ncnc2[C@H](C)NC(=O)c2cc(OC(F)(F)F)cc(S(C)(=O)=O)c2)s1 [I-113]
pest or weed control at 32 µg/disc, 100 g/ha [4]: 100% | mortality at 100 g/ha [12]: 100% | mortality at 100 g/ha [13]: 100% | mortality at 500 g/ha [13]: 100% | mortality at 500 g/ha [8]: 100%

C[C@H](NC(=O)c1cc(OC(F)F)cc(OC(F)F)c1)c1ncnn1-c1ncc(C(=O)N(C)C)s1 [I-119]
mortality at 100 g/ha [1]: 100% | pest or weed control at 32 µg/disc, 100 g/ha [4]: 100% | mortality at 100 g/ha [12]: 90% | mortality at 100 g/ha [13]: 100% | mortality at 500 g/ha [13]: 100% | mortality at 500 g/ha [8]: 100%

C[C@H](NC(=O)c1cc(OC(F)(F)F)cc(S(C)(=O)=O)c1)c1ncnn1-c1ncc(C(=O)N(C)C)s1 [I-120]
mortality at 100 g/ha [1]: 100% | mortality at 100 g/ha [12]: 90% | mortality at 100 g/ha [13]: 100% | mortality at 500 g/ha [13]: 100% | mortality at 500 g/ha [8]: 100%

Cc1nc([C@H](C)NC(=O)c2cc(OC(F)(F)F)cc(C3CC3)c2)n(-c2ncc(C(=O)N(C)CC3CC3)s2)n1 [I-128]
mortality at 100 g/ha [1]: 100% | pest or weed control at 32 µg/disc, 100 g/ha [4]: 100% | mortality at 100 g/ha [12]: 90% | mortality at 100 g/ha [13]: 90% | mortality at 500 g/ha [13]: 100% | mortality at 500 g/ha [8]: 100%

CCN(C)C(=O)c1cnc(-n2nc(C)nc2[C@H](C)NC(=O)c2cc(OC(F)(F)F)cc(C3CC3)c2)s1 [I-129]
mortality at 100 g/ha [1]: 100% | pest or weed control at 32 µg/disc, 100 g/ha [4]: 100% | mortality at 100 g/ha [12]: 100% | mortality at 500 g/ha [8]: 100%

C[C@H](NC(=O)c1cc(S(=O)(=O)C(F)(F)F)cc(S(=O)(=O)C(F)(F)F)c1)c1ncnn1-c1ncc(C#N)s1 [I-138]
mortality at 100 g/ha [1]: 100% | pest or weed control at 32 µg/disc, 100 g/ha [4]: 100% | mortality at 500 g/ha [8]: 100%

Cc1nc([C@H](C)NC(=O)c2cc(C(F)(F)F)cc(S(C)(=O)=O)c2)n(-c2ncc(C#N)s2)n1 [I-165]
mortality at 100 g/ha [1]: 100% | pest or weed control at 32 µg/disc, 100 g/ha [4]: 100% | mortality at 500 g/ha [13]: 100% | mortality at 500 g/ha [8]: 100%
